The data set has as its system CCRIS mutagenicity, Ames/micronucleus/aberration tests. The experiment in a line: CCRIS mutagenicity studies.
[1] abbreviates: Test System: AMES SALMONELLA TYPHIMURIUM, Strain/Indicator: TA98, Metabolic Activation: NONE, Method: STANDARD PLATE.
Setting [2] is: Test System: AMES SALMONELLA TYPHIMURIUM, Strain/Indicator: TA100, Metabolic Activation: NONE, Method: STANDARD PLATE.
The mark [3] stands for this setting: Test System: AMES SALMONELLA TYPHIMURIUM, Strain/Indicator: TA1535, Metabolic Activation: NONE, Method: STANDARD PLATE.
Where [4] appears, read: Test System: AMES SALMONELLA TYPHIMURIUM, Strain/Indicator: TA1537, Metabolic Activation: NONE, Method: STANDARD PLATE.
Where [5] appears, read: Test System: AMES SALMONELLA TYPHIMURIUM, Strain/Indicator: TA98, Metabolic Activation: RAT, LIVER, S-9, AROCLOR 1254, Method: STANDARD PLATE.
Where [6] appears, read: Test System: AMES SALMONELLA TYPHIMURIUM, Strain/Indicator: TA100, Metabolic Activation: RAT, LIVER, S-9, AROCLOR 1254, Method: STANDARD PLATE.

The record followed here is PubChem BioAssay AID1259407 (Chemical Carcinogenesis Research Information System (CCRIS), 2018).

Each structure is given as a SMILES string. The source made the active and inactive calls. No rule for the calls is given here.

With `CCC1(CC(=O)O)OCCc2c1[nH]c1c(C(C)O)cccc21` (stereo not given), the mutagenic call is “inactive; negative” under setting [1]; “inactive; negative” (Test System: AMES SALMONELLA TYPHIMURIUM, Strain/Indicator: TA98, Metabolic Activation: RAT, LIVER, S-9, Method: STANDARD PLATE); “inactive; negative” under setting [2]; “inactive; negative” (Test System: AMES SALMONELLA TYPHIMURIUM, Strain/Indicator: TA100, Metabolic Activation: RAT, LIVER, S-9, Method: STANDARD PLATE); “inactive; negative” under setting [3]; “inactive; negative” (Test System: AMES SALMONELLA TYPHIMURIUM, Strain/Indicator: TA1535, Metabolic Activation: RAT, LIVER, S-9, Method: STANDARD PLATE). In addition, the mutagenic call is, setting by setting: under setting [4], “inactive; negative”; (Test System: AMES SALMONELLA TYPHIMURIUM, Strain/Indicator: TA1537, Metabolic Activation: RAT, LIVER, S-9, Method: STANDARD PLATE) “inactive; negative”; (Test System: E. COLI, Strain/Indicator: WP2 UVRA, Metabolic Activation: NONE, Method: STANDARD PLATE) “inactive; negative”; (Test System: E. COLI, Strain/Indicator: WP2 UVRA, Metabolic Activation: RAT, LIVER, S-9, Method: STANDARD PLATE) “inactive; negative”.

In the case of `O=C(/C=C/c1cccc([N+](=O)[O-])c1)c1ccccc1`, the mutagenic call under setting [1] is “inactive; negative”, the mutagenic call under setting [5] is “inactive; negative”, the mutagenic call under setting [2] was “inactive; negative” and the mutagenic call under setting [6] was “inactive; negative”.

For the molecule `CC(=O)C1(c2ccccc2)CCNCC1`, the mutagenic call runs as follows: (Test System: AMES SALMONELLA TYPHIMURIUM, Strain/Indicator: TA98, Metabolic Activation: HAMSTER, LIVER, S-9, AROCLOR 1254, Method: STANDARD PLATE) “inactive; negative”; under setting [1], “inactive; negative”; under setting [5], “inactive; negative”; (Test System: AMES SALMONELLA TYPHIMURIUM, Strain/Indicator: TA100, Metabolic Activation: HAMSTER, LIVER, S-9, AROCLOR 1254, Method: STANDARD PLATE) “inactive; negative”; under setting [2], “inactive; negative”; under setting [6], “inactive; negative”. The mutagenic call is “inactive; negative” (Test System: AMES SALMONELLA TYPHIMURIUM, Strain/Indicator: TA1535, Metabolic Activation: HAMSTER, LIVER, S-9, AROCLOR 1254, Method: STANDARD PLATE); “inactive; negative” under setting [3]; “inactive; negative” (Test System: AMES SALMONELLA TYPHIMURIUM, Strain/Indicator: TA1535, Metabolic Activation: RAT, LIVER, S-9, AROCLOR 1254, Method: STANDARD PLATE); “inactive; negative” (Test System: AMES SALMONELLA TYPHIMURIUM, Strain/Indicator: TA1537, Metabolic Activation: HAMSTER, LIVER, S-9, AROCLOR 1254, Method: STANDARD PLATE); “inactive; negative” under setting [4]; “inactive; negative” (Test System: AMES SALMONELLA TYPHIMURIUM, Strain/Indicator: TA1537, Metabolic Activation: RAT, LIVER, S-9, AROCLOR 1254, Method: STANDARD PLATE). The mutagenic call (Test System: AMES SALMONELLA TYPHIMURIUM, Strain/Indicator: TA1538, Metabolic Activation: HAMSTER, LIVER, S-9, AROCLOR 1254, Method: STANDARD PLATE) is “inactive; negative”; the mutagenic call (Test System: AMES SALMONELLA TYPHIMURIUM, Strain/Indicator: TA1538, Metabolic Activation: NONE, Method: STANDARD PLATE) is “inactive; negative”; the mutagenic call (Test System: AMES SALMONELLA TYPHIMURIUM, Strain/Indicator: TA1538, Metabolic Activation: RAT, LIVER, S-9, AROCLOR 1254, Method: STANDARD PLATE) was “inactive; negative”; the mutagenic call (Test System: MOUSE LYMPHOMA, Strain/Indicator: L5178Y (TK+/TK-), Metabolic Activation: NONE, Method: SUSPENSION/PLATE) is “inactive; negative. reevaluation of results: negative”; the mutagenic call (Test System: MOUSE LYMPHOMA, Strain/Indicator: L5178Y (TK+/TK-), Metabolic Activation: RAT, LIVER, S-9, AROCLOR 1254, Method: SUSPENSION/PLATE) is “inactive; negative. reevaluation of results: inconclusive”.

In the case of `CC1=CC(=O)C=CC1=O`, the mutagenic call runs as follows: (Test System: AMES SALMONELLA TYPHIMURIUM, Strain/Indicator: TA98, Metabolic Activation: NONE, Method: PREINCUBATION) “inactive; negative”; (Test System: AMES SALMONELLA TYPHIMURIUM, Strain/Indicator: TA98, Metabolic Activation: RAT, LIVER, S-9, PHENOBARBITAL AND 5,6-BENZOFLAVONE, Method: PREINCUBATION) “inactive; negative”; (Test System: AMES SALMONELLA TYPHIMURIUM, Strain/Indicator: TA100, Metabolic Activation: NONE, Method: PREINCUBATION) “inactive; negative”; (Test System: AMES SALMONELLA TYPHIMURIUM, Strain/Indicator: TA102, Metabolic Activation: NONE, Method: PREINCUBATION) “inactive; negative”; (Test System: AMES SALMONELLA TYPHIMURIUM, Strain/Indicator: TA102, Metabolic Activation: RAT, LIVER, S-9, PHENOBARBITAL AND 5,6-BENZOFLAVONE, Method: PREINCUBATION) “inactive; negative”; (Test System: AMES SALMONELLA TYPHIMURIUM, Strain/Indicator: TA104, Metabolic Activation: NONE, Method: PREINCUBATION) “inactive; negative”. The mutagenic call reads like this: (Test System: AMES SALMONELLA TYPHIMURIUM, Strain/Indicator: TA104, Metabolic Activation: RAT, LIVER, S-9, PHENOBARBITAL AND 5,6-BENZOFLAVONE, Method: PREINCUBATION) “inactive; negative”; (Test System: AMES SALMONELLA TYPHIMURIUM, Strain/Indicator: TA2637, Metabolic Activation: NONE, Method: PREINCUBATION) “inactive; negative”; (Test System: AMES SALMONELLA TYPHIMURIUM, Strain/Indicator: TA2637, Metabolic Activation: RAT, LIVER, S-9, PHENOBARBITAL AND 5,6-BENZOFLAVONE, Method: PREINCUBATION) “active; positive”.
